Results taken from ChEMBL document CHEMBL4507318, “Data for DCP probe BAY-985” (2021).

What was measured:
[1] = system: Tyrosine-protein kinase ABL1 (Homo sapiens), P00519 [H396P]
[2] = system: Tyrosine-protein kinase ABL1 (Homo sapiens), P00519 [T315I]
[3] = target: Activin receptor type-2A (Homo sapiens) (UniProt P27037)
[4] = target: Tyrosine-protein kinase Blk (Homo sapiens) (UniProt P51451)
[5] = target: Cytoplasmic tyrosine-protein kinase BMX (Homo sapiens) (UniProt P51813)
[6] = target: Cyclin-dependent kinase 2 (Homo sapiens) (UniProt P24941)
[7] = target: Cyclin-dependent kinase 3 (Homo sapiens) (UniProt Q00526)
[8] = target: Cyclin-dependent kinase 5 (Homo sapiens) (UniProt Q00535)
[9] = target: Cyclin-dependent kinase-like 3 (Homo sapiens) (UniProt Q8IVW4)
[10] = target: Casein kinase I isoform delta (Homo sapiens) (UniProt P48730)
[11] = target: Casein kinase I isoform gamma-1 (Homo sapiens) (UniProt Q9HCP0)
[12] = target: Dual specificity tyrosine-phosphorylation-regulated kinase 2 (Homo sapiens) (UniProt Q92630)
[13] = target: Epidermal growth factor receptor (Homo sapiens) (UniProt P00533)
[14] = system: Epidermal growth factor receptor (Homo sapiens), P00533 [L858R,T790M]
[15] = target: Ephrin type-A receptor 4 (Homo sapiens) (UniProt P54764)
[16] = target: Mitogen-activated protein kinase 3 (Homo sapiens) (UniProt P27361)
[17] = target: Fibroblast growth factor receptor 4 (Homo sapiens) (UniProt P22455)
[18] = system: Receptor-type tyrosine-protein kinase FLT3 (Homo sapiens), P36888 [UNDEFINED MUTATION]
[19] = system: Receptor-type tyrosine-protein kinase FLT3 (Homo sapiens), P36888 [R834Q]
[20] = system: Mast/stem cell growth factor receptor Kit (Homo sapiens), P10721 [A829P]
[21] = system: Leucine-rich repeat serine/threonine-protein kinase 2 (Homo sapiens), Q5S007 [G2019S]
[22] = target: Mitogen-activated protein kinase kinase kinase kinase 3 (Homo sapiens) (UniProt Q8IVH8)
[23] = target: Myosin light chain kinase (Homo sapiens) (UniProt Q32MK0)
[24] = target: Serine/threonine-protein kinase Nek2 (Homo sapiens) (UniProt P51955)
[25] = target: Serine/threonine-protein kinase Nek5 (Homo sapiens) (UniProt Q6P3R8)
[26] = target: Serine/threonine-protein kinase Nek6 (Homo sapiens) (UniProt Q9HC98)
[27] = target: Serine/threonine-protein kinase NIM1 (Homo sapiens) (UniProt Q8IY84)
[28] = target: Serine/threonine-protein kinase OSR1 (Homo sapiens) (UniProt O95747)
[29] = system: Phosphatidylinositol 4,5-bisphosphate 3-kinase catalytic subunit alpha isoform (Homo sapiens), P42336 [C420R]
[30] = system: Phosphatidylinositol 4,5-bisphosphate 3-kinase catalytic subunit alpha isoform (Homo sapiens), P42336 [Q546K]
[31] = target: Phosphatidylinositol 4,5-bisphosphate 3-kinase catalytic subunit gamma isoform (Homo sapiens) (UniProt P48736)
[32] = target: Phosphatidylinositol 4-phosphate 5-kinase type-1 alpha (Homo sapiens) (UniProt Q99755)
[33] = target: Ribosomal protein S6 kinase alpha-2 (Homo sapiens) (UniProt Q15349)
[34] = target: Ribosomal protein S6 kinase alpha-2 (Homo sapiens) (UniProt Q15349); remark: listed apart in the source
[35] = target: Serine/threonine-protein kinase 33 (Homo sapiens) (UniProt Q9BYT3)
[36] = target: Non-receptor tyrosine-protein kinase TNK1 (Homo sapiens) (UniProt Q13470)
[37] = target: High affinity nerve growth factor receptor (Homo sapiens) (UniProt P04629)
[38] = target: Testis-specific serine/threonine-protein kinase 3 (Homo sapiens) (UniProt Q96PN8)
[39] = target: Serine/threonine-protein kinase ULK2 (Homo sapiens) (UniProt Q8IYT8)
[40] = target: Phosphatidylinositol 3-kinase catalytic subunit type 3 (Homo sapiens) (UniProt Q8NEB9)
[41] = target: Serine/threonine-protein kinase WNK2 (Homo sapiens) (UniProt Q9Y3S1)
[42] = target: Serine/threonine-protein kinase 32A (Homo sapiens) (UniProt Q8WU08)
[43] = target: D(3) dopamine receptor (Homo sapiens) (UniProt P35462); settings: Compound concentration 10.0 uM
[44] = target: Histamine H1 receptor (Homo sapiens) (UniProt P35367); settings: Compound concentration 10.0 uM
[45] = target: Muscarinic acetylcholine receptor M5 (Homo sapiens) (UniProt P08912); settings: Compound concentration 10.0 uM
[46] = Compound concentration 1000.0 nM
[47] = Compound concentration 100.0 nM

Sequence of Ribosomal protein S6 kinase alpha-2 (Homo sapiens) (Q15349 whole entry): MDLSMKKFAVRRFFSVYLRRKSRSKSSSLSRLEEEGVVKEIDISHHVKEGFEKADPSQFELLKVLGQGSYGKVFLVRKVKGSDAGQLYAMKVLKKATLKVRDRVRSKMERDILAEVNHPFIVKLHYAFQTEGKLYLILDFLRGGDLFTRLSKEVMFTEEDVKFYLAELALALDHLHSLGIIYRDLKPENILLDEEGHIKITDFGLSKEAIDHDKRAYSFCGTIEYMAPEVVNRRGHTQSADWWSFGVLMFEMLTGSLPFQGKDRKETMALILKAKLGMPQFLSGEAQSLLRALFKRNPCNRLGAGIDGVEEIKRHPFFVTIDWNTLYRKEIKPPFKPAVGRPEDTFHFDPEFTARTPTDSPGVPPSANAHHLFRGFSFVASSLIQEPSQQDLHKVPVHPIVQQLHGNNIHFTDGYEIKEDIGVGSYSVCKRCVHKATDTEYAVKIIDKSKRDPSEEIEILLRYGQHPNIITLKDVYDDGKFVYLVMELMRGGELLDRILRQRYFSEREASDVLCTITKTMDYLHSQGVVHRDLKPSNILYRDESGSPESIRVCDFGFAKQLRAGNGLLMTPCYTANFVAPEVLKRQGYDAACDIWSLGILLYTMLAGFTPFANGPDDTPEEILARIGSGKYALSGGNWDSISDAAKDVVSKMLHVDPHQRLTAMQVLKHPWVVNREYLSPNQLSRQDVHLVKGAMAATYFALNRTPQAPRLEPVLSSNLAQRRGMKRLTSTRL
Sequence of Serine/threonine-protein kinase Nek5 (Homo sapiens) (Q6P3R8 whole entry): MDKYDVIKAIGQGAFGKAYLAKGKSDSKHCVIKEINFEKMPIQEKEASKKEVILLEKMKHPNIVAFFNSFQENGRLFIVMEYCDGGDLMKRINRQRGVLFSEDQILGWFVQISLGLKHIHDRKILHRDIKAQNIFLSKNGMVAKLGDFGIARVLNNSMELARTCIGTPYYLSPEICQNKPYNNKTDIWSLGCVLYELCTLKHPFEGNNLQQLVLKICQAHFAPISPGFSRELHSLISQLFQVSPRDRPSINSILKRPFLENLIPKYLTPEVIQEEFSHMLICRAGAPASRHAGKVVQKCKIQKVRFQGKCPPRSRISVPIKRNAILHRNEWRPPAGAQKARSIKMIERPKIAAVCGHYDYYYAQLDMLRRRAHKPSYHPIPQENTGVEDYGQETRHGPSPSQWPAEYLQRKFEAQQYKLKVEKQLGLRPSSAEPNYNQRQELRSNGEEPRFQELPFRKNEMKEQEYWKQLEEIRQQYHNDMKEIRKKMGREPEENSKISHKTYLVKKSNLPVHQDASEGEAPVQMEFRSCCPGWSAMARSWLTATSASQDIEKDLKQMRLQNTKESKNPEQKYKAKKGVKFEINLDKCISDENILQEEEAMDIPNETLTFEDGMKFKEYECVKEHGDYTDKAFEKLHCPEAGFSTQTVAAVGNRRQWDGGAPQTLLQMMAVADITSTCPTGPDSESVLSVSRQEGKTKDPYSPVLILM
Sequence of Phosphatidylinositol 4,5-bisphosphate 3-kinase catalytic subunit gamma isoform (Homo sapiens) (P48736 whole entry, looked up, canonical isoform): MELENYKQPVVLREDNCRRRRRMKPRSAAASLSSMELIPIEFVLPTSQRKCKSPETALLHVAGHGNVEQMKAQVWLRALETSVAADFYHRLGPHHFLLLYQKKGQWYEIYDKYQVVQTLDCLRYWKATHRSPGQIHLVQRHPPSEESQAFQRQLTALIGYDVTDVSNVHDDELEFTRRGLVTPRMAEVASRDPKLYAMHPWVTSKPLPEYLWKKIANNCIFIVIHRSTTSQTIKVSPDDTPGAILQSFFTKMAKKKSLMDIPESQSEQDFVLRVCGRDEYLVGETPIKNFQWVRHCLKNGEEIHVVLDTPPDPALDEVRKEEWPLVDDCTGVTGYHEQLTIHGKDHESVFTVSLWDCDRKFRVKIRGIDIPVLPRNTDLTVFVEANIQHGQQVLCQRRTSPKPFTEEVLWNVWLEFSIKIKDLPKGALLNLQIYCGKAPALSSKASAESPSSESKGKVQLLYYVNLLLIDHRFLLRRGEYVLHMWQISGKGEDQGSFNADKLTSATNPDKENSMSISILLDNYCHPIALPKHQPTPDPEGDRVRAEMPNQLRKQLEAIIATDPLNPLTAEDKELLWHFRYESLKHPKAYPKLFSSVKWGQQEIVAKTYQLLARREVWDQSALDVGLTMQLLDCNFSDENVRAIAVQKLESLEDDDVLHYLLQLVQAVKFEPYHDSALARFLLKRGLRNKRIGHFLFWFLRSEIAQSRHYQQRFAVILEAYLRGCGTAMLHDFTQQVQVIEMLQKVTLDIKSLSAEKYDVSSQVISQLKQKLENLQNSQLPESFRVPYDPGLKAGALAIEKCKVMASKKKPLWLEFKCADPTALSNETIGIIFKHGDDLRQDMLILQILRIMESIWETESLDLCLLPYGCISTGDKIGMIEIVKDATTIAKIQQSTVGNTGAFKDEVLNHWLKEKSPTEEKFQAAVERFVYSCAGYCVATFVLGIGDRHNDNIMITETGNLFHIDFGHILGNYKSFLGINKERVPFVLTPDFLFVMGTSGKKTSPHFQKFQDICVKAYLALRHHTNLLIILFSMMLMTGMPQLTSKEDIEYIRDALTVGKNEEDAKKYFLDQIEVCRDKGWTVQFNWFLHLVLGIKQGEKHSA
Sequence of Histamine H1 receptor (Homo sapiens) (P35367 whole entry): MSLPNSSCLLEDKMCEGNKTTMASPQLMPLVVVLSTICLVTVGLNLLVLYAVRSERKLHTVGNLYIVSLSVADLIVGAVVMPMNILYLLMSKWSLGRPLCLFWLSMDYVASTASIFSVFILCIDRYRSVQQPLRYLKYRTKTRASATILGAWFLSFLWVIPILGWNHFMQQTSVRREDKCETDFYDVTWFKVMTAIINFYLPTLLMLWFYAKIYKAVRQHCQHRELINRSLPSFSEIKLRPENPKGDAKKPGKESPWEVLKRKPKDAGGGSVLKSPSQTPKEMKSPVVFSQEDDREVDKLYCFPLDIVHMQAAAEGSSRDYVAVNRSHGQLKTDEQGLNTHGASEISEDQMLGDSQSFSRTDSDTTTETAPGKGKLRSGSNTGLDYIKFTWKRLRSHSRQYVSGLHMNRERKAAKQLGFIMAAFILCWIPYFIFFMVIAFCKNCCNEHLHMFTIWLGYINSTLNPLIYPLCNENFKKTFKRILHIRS
Sequence of D(3) dopamine receptor (Homo sapiens) (P35462 whole entry): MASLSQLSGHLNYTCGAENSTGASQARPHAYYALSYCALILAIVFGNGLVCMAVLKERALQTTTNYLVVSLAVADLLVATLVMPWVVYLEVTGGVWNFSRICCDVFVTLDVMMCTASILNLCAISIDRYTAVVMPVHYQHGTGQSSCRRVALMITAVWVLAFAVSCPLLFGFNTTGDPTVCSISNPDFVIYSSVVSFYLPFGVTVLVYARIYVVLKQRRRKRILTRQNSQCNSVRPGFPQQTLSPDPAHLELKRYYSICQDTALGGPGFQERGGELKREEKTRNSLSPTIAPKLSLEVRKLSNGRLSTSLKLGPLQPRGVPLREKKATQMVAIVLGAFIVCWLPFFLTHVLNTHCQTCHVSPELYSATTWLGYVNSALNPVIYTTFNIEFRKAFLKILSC
Sequence of Cytoplasmic tyrosine-protein kinase BMX (Homo sapiens) (P51813 whole entry): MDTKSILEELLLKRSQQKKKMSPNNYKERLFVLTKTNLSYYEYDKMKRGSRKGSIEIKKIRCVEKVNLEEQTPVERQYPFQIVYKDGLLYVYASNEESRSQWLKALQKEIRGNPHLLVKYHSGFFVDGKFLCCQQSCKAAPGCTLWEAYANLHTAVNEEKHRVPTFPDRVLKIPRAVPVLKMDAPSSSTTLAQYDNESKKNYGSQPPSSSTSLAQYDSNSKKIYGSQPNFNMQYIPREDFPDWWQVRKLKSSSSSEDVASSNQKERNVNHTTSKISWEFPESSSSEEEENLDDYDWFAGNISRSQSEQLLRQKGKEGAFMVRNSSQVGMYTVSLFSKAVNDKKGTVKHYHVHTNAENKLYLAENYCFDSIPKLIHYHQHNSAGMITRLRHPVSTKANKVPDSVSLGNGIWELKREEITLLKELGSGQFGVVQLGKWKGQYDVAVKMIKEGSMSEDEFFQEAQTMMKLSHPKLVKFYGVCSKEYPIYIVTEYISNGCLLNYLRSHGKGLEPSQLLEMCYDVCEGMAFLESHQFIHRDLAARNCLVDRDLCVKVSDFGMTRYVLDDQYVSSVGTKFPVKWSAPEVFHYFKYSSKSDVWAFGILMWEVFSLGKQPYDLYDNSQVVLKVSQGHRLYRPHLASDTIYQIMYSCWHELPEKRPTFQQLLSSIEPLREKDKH
Sequence of Cyclin-dependent kinase 5 (Homo sapiens) (Q00535 whole entry, looked up): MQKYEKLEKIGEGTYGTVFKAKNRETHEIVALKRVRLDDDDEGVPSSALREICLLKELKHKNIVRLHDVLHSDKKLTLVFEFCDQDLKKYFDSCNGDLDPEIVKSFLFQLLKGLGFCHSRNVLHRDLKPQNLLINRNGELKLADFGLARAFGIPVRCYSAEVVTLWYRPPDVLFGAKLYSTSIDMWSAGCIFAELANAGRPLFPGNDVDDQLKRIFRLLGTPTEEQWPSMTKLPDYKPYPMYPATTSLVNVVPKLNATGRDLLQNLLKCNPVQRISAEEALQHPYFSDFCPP
Sequence of Serine/threonine-protein kinase 33 (Homo sapiens) (Q9BYT3 whole entry, looked up): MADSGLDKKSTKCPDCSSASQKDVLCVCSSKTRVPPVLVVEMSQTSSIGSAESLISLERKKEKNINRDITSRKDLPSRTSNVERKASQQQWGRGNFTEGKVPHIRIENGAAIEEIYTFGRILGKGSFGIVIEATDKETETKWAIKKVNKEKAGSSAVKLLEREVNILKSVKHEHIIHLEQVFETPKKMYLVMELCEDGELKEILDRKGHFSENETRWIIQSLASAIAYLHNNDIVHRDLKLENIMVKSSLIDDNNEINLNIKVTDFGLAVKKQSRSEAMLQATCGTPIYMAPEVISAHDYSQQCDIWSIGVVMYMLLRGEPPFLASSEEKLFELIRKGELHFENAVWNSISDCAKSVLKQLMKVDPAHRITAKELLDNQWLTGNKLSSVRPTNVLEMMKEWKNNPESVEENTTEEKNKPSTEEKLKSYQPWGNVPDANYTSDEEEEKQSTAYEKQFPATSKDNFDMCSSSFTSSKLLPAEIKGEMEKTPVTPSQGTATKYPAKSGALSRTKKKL

## CN(C)c1ncnc(-c2ccc3nc(Nc4cc(CN5CCN(C(=O)CC(F)(F)F)CC5)ccn4)[nH]c3c2)c1Cl [BAY-440]
[1]; [46]
  residual activity: 44%
[2]; [46]
  residual activity: 46%
[3]; [46]
  residual activity: 90%
[4]; [46]
  residual activity: 82%
[5]; [46]
  residual activity: 100%
[6]; [46]
  residual activity: 100%
[7]; [46]
  residual activity: 86%
[8]; [46]
  residual activity: 100%
[9]; [46]
  residual activity: 86%
[10]; [46]
  residual activity: 83%
[11]; [46]
  residual activity: 76%
[12]; [46]
  residual activity: 81%
[13]; [46]
  residual activity: 100%
[14]; [46]
  residual activity: 82%
[15]; [46]
  residual activity: 92%
[16]; [46]
  residual activity: 100%
[17]; [46]
  residual activity: 92%
[18]; [46]
  residual activity: 35%
[19]; [46]
  residual activity: 77%
[20]; [46]
  residual activity: 53%
[21]; [46]
  residual activity: 69%
[22]; [46]
  residual activity: 74%
[23]; [46]
  residual activity: 90%
[24]; [46]
  residual activity: 86%
[25]; [46]
  residual activity: 100%
[26]; [46]
  residual activity: 98%
[27]; [46]
  residual activity: 61%
[28]; [46]
  residual activity: 94%
[29]; [46]
  residual activity: 88%
[30]; [46]
  residual activity: 30%
[31]; [46]
  residual activity: 100%
[32]; [46]
  residual activity: 96%
[33]; [46]
  residual activity: 100%
[34]; [46]
  residual activity: 100%
[35]; [46]
  residual activity: 100%
[36]; [46]
  residual activity: 96%
[37]; [46]
  residual activity: 38%
[38]; [46]
  residual activity: 62%
[39]; [46]
  residual activity: 64%
[40]; [46]
  residual activity: 100%
[41]; [46]
  residual activity: 59%
[42]; [46]
  residual activity: 85%
[43]
  inhibition: 30.1%
[44]
  inhibition: 26.4%
[45]
  inhibition: 12.4%

## C[C@H](c1ccnc(Nc2nc3ccc(-c4cc(N(C)C)ncn4)cc3[nH]2)c1)N1CCN(C(=O)CC(F)(F)F)CC1 [BAY-985]
[1]; [47]
  residual activity: 87%
[2]; [47]
  residual activity: 100%
[3]; [47]
  residual activity: 100%
[4]; [47]
  residual activity: 79%
[5]; [47]
  residual activity: 100%
[6]; [47]
  residual activity: 100%
[7]; [47]
  residual activity: 100%
[8]; [47]
  residual activity: 86%
[9]; [47]
  residual activity: 86%
[10]; [47]
  residual activity: 89%
[11]; [47]
  residual activity: 100%
[12]; [47]
  residual activity: 87%
[13]; [47]
  residual activity: 97%
[14]; [47]
  residual activity: 100%
[15]; [47]
  residual activity: 98%
[16]; [47]
  residual activity: 89%
[17]; [47]
  residual activity: 98%
[18]; [47]
  residual activity: 42%
[19]; [47]
  residual activity: 100%
[20]; [47]
  residual activity: 83%
[21]; [47]
  residual activity: 100%
[22]; [47]
  residual activity: 100%
[23]; [47]
  residual activity: 100%
[24]; [47]
  residual activity: 100%
[25]; [47]
  residual activity: 100%
[26]; [47]
  residual activity: 83%
[27]; [47]
  residual activity: 100%
[28]; [47]
  residual activity: 100%
[29]; [47]
  residual activity: 100%
[30]; [47]
  residual activity: 45%
[31]; [47]
  residual activity: 100%
[32]; [47]
  residual activity: 100%
[33]; [47]
  residual activity: 98%
[34]; [47]
  residual activity: 89%
[35]; [47]
  residual activity: 100%
[36]; [47]
  residual activity: 100%
[37]; [47]
  residual activity: 79%
[38]; [47]
  residual activity: 74%
[39]; [47]
  residual activity: 100%
[40]; [47]
  residual activity: 100%
[41]; [47]
  residual activity: 92%
[42]; [47]
  residual activity: 100%
[43]
  inhibition: 35.5%
[44]
  inhibition: 35%
[45]
  inhibition: 18.7%
